Values joined by “and” are separate entries in the source; they are usually repeats but may differ in a detail not shown here. Equal entries are not always repeated. Numbers after ± are expanded uncertainties.
Legend:
[1] = for vapor or sublimation pressure: Transpiration method; for Normal melting temperature: DTA
[2] = Boiling temperature at pressure P; conditions: Liquid, Distillation
[3] = Molar enthalpy of transition or fusion; conditions: Crystal; DSC

c1cn[nH]c1 [1H-pyrazole]
[1], Crystal
Conditions | vapor or sublimation pressure [kPa]
308.4 K | 0.0499 ± 0.0033
310.8 K | 0.0628 ± 0.0041
313.4 K | 0.08 ± 0.0051
315.8 K | 0.1 ± 0.0064
318.2 K | 0.1258 ± 0.0082
323.3 K | 0.189 ± 0.012
328.3 K | 0.287 ± 0.018
330.9 K | 0.3495 ± 0.022
333.3 K | 0.4255 ± 0.027
335.8 K | 0.5187 ± 0.033
338.3 K | 0.6278 ± 0.039

c1ccc(-n2cccn2)cc1 [1-phenylpyrazole]
[1], Liquid
Conditions | vapor or sublimation pressure [kPa]
294.2 K | 0.00258 ± 0.00018
295.2 K | 0.00284 ± 0.00019
297.2 K | 0.00324 ± 0.00022
303.2 K | 0.00556 ± 0.00039
309.1 K | 0.00913 ± 0.00061
315 K | 0.01461 ± 0.00096
320.9 K | 0.02221 ± 0.0014
327 K | 0.03352 ± 0.0022
332.8 K | 0.05146 ± 0.0033
338.9 K | 0.07723 ± 0.0049
344.9 K | 0.1082 ± 0.0068
350.8 K | 0.1589 ± 0.01
354.8 K | 0.2072 ± 0.013
360.8 K | 0.2918 ± 0.018

c1ccc(Cn2cccn2)cc1 [1-benzylpyrazole]
[1], Liquid
Conditions | vapor or sublimation pressure
298.2 K | 0.00147 ± 0.00011 kPa
310.2 K | 0.0043 ± 0.00027 kPa
314.2 K | 0.00615 ± 0.00044 kPa
318.2 K | 0.00882 ± 0.00061 kPa
322.2 K | 0.0119 ± 0.0008 kPa
326.2 K | 0.0166 ± 0.001 kPa and 0.0168 ± 0.001 kPa
330.2 K | 0.0225 ± 0.0015 kPa
334.2 K | 0.0311 ± 0.002 kPa
338.2 K | 0.0421 ± 0.0027 kPa
342.2 K | 0.0559 ± 0.0035 kPa
346.2 K | 0.0713 ± 0.0045 kPa
350.2 K | 0.0969 ± 0.006 kPa
354.2 K | 0.1228 ± 0.0077 kPa
358.2 K | 0.159 ± 0.0099 kPa

Conditions | Boiling temperature at pressure P [°C]
[2], 0.6 kPa | 109 ± 5

CCn1cccn1 [1-ethylpyrazole]
[1], Liquid
Conditions | vapor or sublimation pressure
275.2 K | 0.1828 ± 0.012 kPa and 0.1776 ± 0.011 kPa
279.2 K | 0.2485 ± 0.015 kPa
280.2 K | 0.2616 ± 0.017 kPa
283.2 K | 0.3347 ± 0.021 kPa
285.2 K | 0.3759 ± 0.024 kPa
287.2 K | 0.4482 ± 0.028 kPa
290.2 K | 0.5448 ± 0.034 kPa
291.2 K | 0.5877 ± 0.037 kPa
294.2 K | 0.7128 ± 0.044 kPa
295.2 K | 0.7543 ± 0.048 kPa
298.2 K | 0.9478 ± 0.059 kPa
300.2 K | 1.073 ± 0.067 kPa
302.2 K | 1.237 ± 0.077 kPa
303.2 K | 1.3 ± 0.082 kPa
305.2 K | 1.539 ± 0.097 kPa
306.2 K | 1.63 ± 0.1 kPa
311.2 K | 2.194 ± 0.14 kPa

Conditions | Boiling temperature at pressure P [°C]
[2], 7.2 kPa | 60 ± 4

Cc1cc(C)n(C)n1 [1,3,5-trimethylpyrazole]
Conditions | Molar enthalpy of transition or fusion [kcal/mol]
[3] | 4.21 ± 0.215

[1]
Conditions | vapor or sublimation pressure
282 K, Crystal | 0.0479 ± 0.0031 kPa
284 K, Crystal | 0.0583 ± 0.0039 kPa
287 K, Crystal | 0.0816 ± 0.0054 kPa
288.7 K, Crystal | 0.0998 ± 0.0065 kPa
291.7 K, Crystal | 0.1348 ± 0.0087 kPa
293.8 K, Crystal | 0.1707 ± 0.011 kPa
296.7 K, Crystal | 0.2266 ± 0.015 kPa
298.7 K, Crystal | 0.2751 ± 0.018 kPa and 0.2814 ± 0.018 kPa
301.7 K, Crystal | 0.376 ± 0.024 kPa
301.9 K, Crystal | 0.3776 ± 0.024 kPa
303 K, Crystal | 0.4153 ± 0.026 kPa
303.9 K, Crystal | 0.4496 ± 0.029 kPa
306.8 K, Crystal | 0.5927 ± 0.038 kPa
315.6 K, Liquid | 0.934 ± 0.058 kPa
320.8 K, Liquid | 1.297 ± 0.081 kPa
325.7 K, Liquid | 1.793 ± 0.11 kPa
326.4 K, Liquid | 1.878 ± 0.12 kPa
330.5 K, Liquid | 2.376 ± 0.15 kPa
331.4 K, Liquid | 2.585 ± 0.16 kPa
334.1 K, Liquid | 2.995 ± 0.19 kPa
336 K, Liquid | 3.202 ± 0.23 kPa
336.4 K, Liquid | 3.436 ± 0.24 kPa
338.9 K, Liquid | 3.803 ± 0.24 kPa
341.4 K, Liquid | 4.545 ± 0.28 kPa
343.4 K, Liquid | 4.993 ± 0.31 kPa
346.4 K, Liquid | 5.866 ± 0.36 kPa

Conditions | Normal melting temperature [°C]
[1], Crystal | 39.4 ± 1.1

Cc1cc(C)[nH]n1 [3,5-dimethylpyrazole]
Conditions | Molar enthalpy of transition or fusion [kcal/mol]
[3] | 3.85 ± 0.12

[1], Crystal
Conditions | vapor or sublimation pressure [kPa]
323.3 K | 0.0136 ± 0.001
325.9 K | 0.0179 ± 0.0013
326.3 K | 0.019 ± 0.0013
328.3 K | 0.0224 ± 0.0015
330.3 K | 0.028 ± 0.0018
333.3 K | 0.0361 ± 0.0023
333.5 K | 0.0368 ± 0.0023
336.3 K | 0.0473 ± 0.003
338.2 K | 0.0538 ± 0.0036
343.3 K | 0.0846 ± 0.0053
345.7 K | 0.1033 ± 0.0066
348.3 K | 0.1257 ± 0.0081
350.7 K | 0.1591 ± 0.01
350.8 K | 0.1585 ± 0.01
353.2 K | 0.1955 ± 0.012
354.3 K | 0.2107 ± 0.013
356.4 K | 0.2524 ± 0.016

Conditions | Normal melting temperature [°C]
[1], Crystal | 109.1 ± 1.1

Cc1cn[nH]c1 [4-methylpyrazole]
[1], Liquid
Conditions | vapor or sublimation pressure [kPa]
296 K | 0.0098 ± 0.0007
301 K | 0.0149 ± 0.001
305.9 K | 0.0226 ± 0.0015
310.8 K | 0.0339 ± 0.0022
315.8 K | 0.0494 ± 0.0032
320.9 K | 0.0719 ± 0.0045
325.7 K | 0.099 ± 0.0063
330.6 K | 0.1457 ± 0.0093
335.6 K | 0.2071 ± 0.013
340.6 K | 0.2879 ± 0.018

Cn1cccn1 [1-methyl-1H-pyrazole]
[1], Liquid
Conditions | vapor or sublimation pressure [kPa]
273.4 K | 0.3007 ± 0.019
276.4 K | 0.3722 ± 0.023
277.2 K | 0.3818 ± 0.024
278.7 K | 0.4304 ± 0.027
281.6 K | 0.5225 ± 0.033
281.8 K | 0.5148 ± 0.032
283.3 K | 0.5843 ± 0.037
284.6 K | 0.6386 ± 0.04
286.5 K | 0.7077 ± 0.044
287.8 K | 0.7821 ± 0.049
288.3 K | 0.8074 ± 0.051
290.5 K | 0.9287 ± 0.058
291.4 K | 0.9834 ± 0.062
292.5 K | 1.077 ± 0.068
294.4 K | 1.195 ± 0.075
296.5 K | 1.365 ± 0.085
297.4 K | 1.456 ± 0.09
298.8 K | 1.576 ± 0.098
302.4 K | 1.989 ± 0.12
304.7 K | 2.313 ± 0.14
306.6 K | 2.528 ± 0.16
308.2 K | 2.753 ± 0.17

c1ccc2[nH]ncc2c1 [1,2-diazaindene]
[1], Crystal
Conditions | vapor or sublimation pressure
323.3 K | 0.00069 ± 5e-05 kPa
326.3 K | 0.00098 ± 7e-05 kPa
330.3 K | 0.00152 ± 0.0001 kPa
331.3 K | 0.00161 ± 0.00012 kPa
336.3 K | 0.00272 ± 0.00018 kPa
338.3 K | 0.00329 ± 0.00023 kPa
341.3 K | 0.00443 ± 0.0003 kPa
343.3 K | 0.00515 ± 0.00037 kPa and 0.00524 ± 0.00039 kPa
345.2 K | 0.00661 ± 0.00047 kPa
346.3 K | 0.00723 ± 0.0005 kPa
348.3 K | 0.00826 ± 0.00057 kPa
350.3 K | 0.01023 ± 0.0007 kPa
353.2 K | 0.01343 ± 0.0009 kPa
356.2 K | 0.01763 ± 0.0012 kPa
358.2 K | 0.0211 ± 0.0014 kPa
361.2 K | 0.02725 ± 0.0018 kPa

Cc1cc[nH]n1 [3-methylpyrazole]
[1], Liquid
Conditions | vapor or sublimation pressure [kPa]
306.3 K | 0.0252 ± 0.0017
308.7 K | 0.0308 ± 0.002
311.2 K | 0.0369 ± 0.0023
313.8 K | 0.0443 ± 0.0028
316.3 K | 0.0568 ± 0.0036
318.2 K | 0.063 ± 0.004
321.2 K | 0.0821 ± 0.0053
323.8 K | 0.0978 ± 0.0062
326.2 K | 0.1165 ± 0.0073
328.8 K | 0.142 ± 0.009
333.2 K | 0.1924 ± 0.012

Reference: the NIST ThermoML archive (doi:10.1016/j.jct.2018.07.020)
